Experimental data reported in ChEMBL document CHEMBL1149404, “Design and synthesis of substituted phenylpropanoic acid derivatives as human peroxisome proliferator-activated receptor alpha/delta dual agonists” (Bioorg Med Chem Lett, 2006).

How the values were obtained:
[1] = target: T1, Peroxisome proliferator-activated receptor alpha (Homo sapiens, UniProt Q07869); test: Agonist activity at PPARalpha transfected in HEK293 cells; assay type: functional, cell-based
T1 sequence (Q07869 whole entry): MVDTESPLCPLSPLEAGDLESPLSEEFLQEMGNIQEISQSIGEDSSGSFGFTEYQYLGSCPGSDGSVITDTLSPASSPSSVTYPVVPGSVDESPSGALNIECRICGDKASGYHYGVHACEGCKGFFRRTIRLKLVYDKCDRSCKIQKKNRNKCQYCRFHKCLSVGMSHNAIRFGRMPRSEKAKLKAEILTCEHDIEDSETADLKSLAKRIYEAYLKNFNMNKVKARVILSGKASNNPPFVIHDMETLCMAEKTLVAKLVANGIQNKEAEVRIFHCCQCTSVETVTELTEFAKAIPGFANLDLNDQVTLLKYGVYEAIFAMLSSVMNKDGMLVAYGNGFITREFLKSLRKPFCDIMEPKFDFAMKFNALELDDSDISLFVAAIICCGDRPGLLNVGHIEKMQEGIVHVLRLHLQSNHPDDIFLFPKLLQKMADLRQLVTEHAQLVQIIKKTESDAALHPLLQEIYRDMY

[2] = target: T2, Peroxisome proliferator-activated receptor delta (Homo sapiens, UniProt Q03181); test: Agonist activity at PPARdelta transfected in HEK293 cells; assay type: functional, cell-based
T2 sequence (Q03181 whole entry): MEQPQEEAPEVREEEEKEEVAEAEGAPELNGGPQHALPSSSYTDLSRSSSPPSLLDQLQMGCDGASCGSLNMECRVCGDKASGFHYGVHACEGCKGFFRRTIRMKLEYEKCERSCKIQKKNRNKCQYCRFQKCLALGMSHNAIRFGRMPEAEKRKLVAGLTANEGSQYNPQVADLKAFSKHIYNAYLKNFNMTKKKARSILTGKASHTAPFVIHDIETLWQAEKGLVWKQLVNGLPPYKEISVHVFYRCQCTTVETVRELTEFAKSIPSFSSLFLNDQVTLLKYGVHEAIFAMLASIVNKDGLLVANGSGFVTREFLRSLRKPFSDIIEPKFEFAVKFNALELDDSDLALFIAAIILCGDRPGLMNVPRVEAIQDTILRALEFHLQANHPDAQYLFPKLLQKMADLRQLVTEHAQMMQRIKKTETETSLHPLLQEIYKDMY

[3] = target: T3, Peroxisome proliferator-activated receptor gamma (Homo sapiens, UniProt P37231); test: Agonist activity at PPARgamma transfected in HEK293 cells; assay type: functional, cell-based
T3 sequence (P37231 whole entry): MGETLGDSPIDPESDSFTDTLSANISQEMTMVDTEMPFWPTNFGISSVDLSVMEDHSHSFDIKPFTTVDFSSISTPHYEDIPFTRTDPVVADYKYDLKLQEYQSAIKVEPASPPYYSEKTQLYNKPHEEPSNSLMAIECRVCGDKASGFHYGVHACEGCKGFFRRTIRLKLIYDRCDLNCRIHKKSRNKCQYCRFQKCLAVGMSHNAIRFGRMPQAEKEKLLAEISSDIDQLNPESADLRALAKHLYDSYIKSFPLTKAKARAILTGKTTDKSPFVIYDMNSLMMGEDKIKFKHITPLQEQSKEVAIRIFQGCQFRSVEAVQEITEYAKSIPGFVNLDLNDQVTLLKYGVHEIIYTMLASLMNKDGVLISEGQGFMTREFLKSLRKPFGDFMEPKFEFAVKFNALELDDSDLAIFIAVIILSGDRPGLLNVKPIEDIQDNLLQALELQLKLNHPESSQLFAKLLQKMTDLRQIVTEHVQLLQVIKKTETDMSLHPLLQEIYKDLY

[4] = target: T4, Peroxisome proliferator-activated receptor delta (Mus musculus, UniProt P35396); test: Agonist activity at mouse PPARdelta transfected in HEK293 cells; assay type: functional, cell-based
T4 sequence (P35396 whole entry): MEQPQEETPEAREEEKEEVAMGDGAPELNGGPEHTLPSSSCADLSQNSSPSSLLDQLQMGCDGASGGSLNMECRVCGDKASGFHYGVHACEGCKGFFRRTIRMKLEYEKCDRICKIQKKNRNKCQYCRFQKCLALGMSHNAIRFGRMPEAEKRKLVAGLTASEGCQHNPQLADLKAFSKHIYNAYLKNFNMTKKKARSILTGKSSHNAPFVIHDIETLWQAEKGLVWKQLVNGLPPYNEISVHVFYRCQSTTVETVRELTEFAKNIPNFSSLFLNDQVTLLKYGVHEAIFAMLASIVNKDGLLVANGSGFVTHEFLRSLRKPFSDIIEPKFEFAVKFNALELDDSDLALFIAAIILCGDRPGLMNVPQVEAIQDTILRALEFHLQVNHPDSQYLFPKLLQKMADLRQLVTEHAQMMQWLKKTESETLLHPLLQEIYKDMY

[5] = target: Peroxisome proliferator-activated receptor alpha (Homo sapiens, UniProt Q07869, I272F); test: Agonist activity at human PPARalpha containing mutant I272F domain transfected in HEK293 cells
Peroxisome proliferator-activated receptor alpha (Homo sapiens, UniProt Q07869, I272F), sequence (Q07869 whole entry I272F, the tested form may be a part): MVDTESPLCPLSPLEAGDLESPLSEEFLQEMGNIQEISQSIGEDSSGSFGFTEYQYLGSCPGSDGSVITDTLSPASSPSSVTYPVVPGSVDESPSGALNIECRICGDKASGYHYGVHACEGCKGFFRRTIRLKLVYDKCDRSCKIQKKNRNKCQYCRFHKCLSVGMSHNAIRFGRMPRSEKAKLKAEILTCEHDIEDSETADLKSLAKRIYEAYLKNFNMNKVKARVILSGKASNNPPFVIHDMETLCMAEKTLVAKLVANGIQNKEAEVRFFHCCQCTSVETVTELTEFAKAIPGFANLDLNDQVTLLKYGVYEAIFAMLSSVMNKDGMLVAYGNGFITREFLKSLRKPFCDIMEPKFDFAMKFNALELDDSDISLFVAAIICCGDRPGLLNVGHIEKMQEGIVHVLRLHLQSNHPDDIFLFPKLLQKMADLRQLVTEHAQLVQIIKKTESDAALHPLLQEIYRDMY

[6] = target: T5, Peroxisome proliferator-activated receptor alpha (Mus musculus, UniProt P23204); test: Agonist activity at mouse PPARalpha transfected in HEK293 cells; assay type: functional, cell-based
T5 sequence (P23204 whole entry): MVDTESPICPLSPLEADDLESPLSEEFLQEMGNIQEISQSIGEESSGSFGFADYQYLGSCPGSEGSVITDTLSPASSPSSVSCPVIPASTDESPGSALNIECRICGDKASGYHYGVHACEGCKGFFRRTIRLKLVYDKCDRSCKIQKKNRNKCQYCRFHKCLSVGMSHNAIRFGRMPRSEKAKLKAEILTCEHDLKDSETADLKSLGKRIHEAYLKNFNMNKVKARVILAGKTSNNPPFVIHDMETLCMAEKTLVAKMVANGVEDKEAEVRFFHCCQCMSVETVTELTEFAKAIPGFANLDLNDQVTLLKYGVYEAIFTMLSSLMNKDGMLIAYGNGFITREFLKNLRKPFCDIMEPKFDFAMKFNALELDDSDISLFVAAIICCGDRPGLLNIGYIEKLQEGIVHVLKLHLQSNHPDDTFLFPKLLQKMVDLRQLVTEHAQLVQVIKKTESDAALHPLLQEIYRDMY

[7] = target: T3, Peroxisome proliferator-activated receptor gamma; test: Agonist activity at PPARgamma transfected in HEK293 cells at 1 uM; assay type: functional, cell-based
[8] = target: T1, Peroxisome proliferator-activated receptor alpha; test: Agonist activity at PPARalpha transfected in HEK293 cells at 1 uM; assay type: functional, cell-based
[9] = target: T2, Peroxisome proliferator-activated receptor delta; test: Agonist activity at PPARdelta transfected in HEK293 cells at 1 uM; assay type: functional, cell-based

Structure (SMILES) | EC50 [1] [nM] | EC50 [2] [nM] | EC50 [3] [nM] | also measured
CC[C@H](Cc1ccc(OC)c(CNC(=O)c2ccc(C(F)(F)F)c(F)c2)c1)C(=O)O | 180 | 700 | > 10000 | –
CC[C@@H](Cc1ccc(OC)c(CNC(=O)c2ccc(C(F)(F)F)c(F)c2)c1)C(=O)O | 10 | 40 | – | EC50 [4]: 130 nM; EC50 [5]: 630 nM; EC50 [6]: 1000 nM
CCC(Cc1ccc(OC)c(CNC(=O)c2ccc(F)c(C(F)(F)F)c2)c1)C(=O)O (stereo not drawn) | – | – | > 10000 | –
CCC(Cc1ccc(F)c(C(=O)NCc2ccc(C(F)(F)F)cc2)c1)C(=O)O (stereo not drawn) | – | – | – | EC50 [7]: Not Active; EC50 [8]: Not Active; EC50 [9]: Not Active
CCC(Cc1ccc(OC)c(C(=O)NCc2ccc(C(F)(F)F)cc2F)c1)C(=O)O (stereo not drawn) | 20 | 1000 | 500 | –
CCC(Cc1ccc(OC)c(C(=O)NCc2ccc(C(F)(F)F)c(F)c2)c1)C(=O)O (stereo not drawn) | 25 | 500 | 1600 | –

Now from value to molecule, other results behind:

EC50 [1] [nM] | EC50 [2] [nM] | EC50 [3] [nM] | Structure (SMILES) | also measured
70 | 700 | – | CCC(Cc1ccc(OC)c(C(=O)NCc2ccc(C(F)(F)F)cc2)c1)C(=O)O (racemic) | –
10 | 130 | 2000 | CCC(Cc1ccc(OC)c(CNC(=O)c2ccc(C(F)(F)F)cc2)c1)C(=O)O (stereo not drawn) | –
